Reference: patent US7651978B2, “Selective herbicides based on a substituted phenylsulphonylaminocarbonyl-triazolinone” (Arysta LifeScience North America, LLC, priority 1998, dated 2010)
Where a name gives a salt, the structure may show the parent alone.

Legend:
Setaria viridis [1] = experiment: Post-emergence tests/outdoors (Example D, Canada and USA); format: in vivo; conditions: outdoors, 28–30 g of a.i./ha + SAS, 70 WP or 70 WG, 102 tests
Description: (§1) Post-Emergence Tests/Outdoors The sodium salt of the compound of the formula (I) was tested under outdoor conditions in the main cultivation areas of summer wheat in Canada and the USA against economically important weeds. The small-plot experiments were carried out on cultivated land under agricultural use, with cultivation and climate conditions which can be considered to be representative for the period of the trial. Areas with particularly extensive weed growth were chosen by way of preference. The active compound was applied across the area by the spray method, with an average droplet size. To produce a useful preparation of active compound, the active compound was formulated as 70 WP or 70 WG (70% w/w water-dispersible powder or granules) and applied with customary amounts of water. Wetting of the plants was improved by addition of a surface-active substance (SAS) in the concentration recommended by the manufacturer. To assess the crop compatibility, from 1 to 8 weeks after the treatment, plant growth inhibitions or […] of the leaf area were assessed in % damage in comparison to the development of the untreated control. At different intervals after the treatment, the herbicidal activity was assessed as % reduction in comparison to the untreated control, based on the weed development. The figures denote: • 0%=no damage of the crops or no herbicidal effect, • 100%=total destruction of the crops or the weeds.

Brassica spp. = experiment: as above; format: in vivo; conditions: outdoors, 28–30 g of a.i./ha + SAS, 70 WP or 70 WG, 27 tests
Description: as §1

Sinapis arvensis [2] = experiment: as above; format: in vivo; conditions: outdoors, 28–30 g of a.i./ha + SAS, 70 WP or 70 WG, 48 tests
Description: as §1

Thlaspi arvense [3] = experiment: as above; format: in vivo; conditions: outdoors, 28–30 g of a.i./ha + SAS, 70 WP or 70 WG, 45 tests
Description: as §1

Avena fatua [4] = experiment: as above; format: in vivo; conditions: outdoors, 28–30 g of a.i./ha + SAS, 70 WP or 70 WG, 263 tests
Description: as §1

Capsella bursa-pastoris = experiment: as above; format: in vivo; conditions: outdoors, 28–30 g of a.i./ha + SAS, 70 WP or 70 WG, 12 tests
Description: as §1

Amaranthus retroflexus = experiment: as above; format: in vivo; conditions: outdoors, 28–30 g of a.i./ha + SAS, 70 WP or 70 WG, 60 tests
Description: as §1

wheat [5] = experiment: Post-emergence tests/outdoors (Example C, Canada), crop damage; format: in vivo, summer wheat; conditions: in vivo
Description: (§2) Post-Emergence Tests/Outdoors In addition to the comparative compounds (B) and (D), the sodium salt of the compound of the formula (I) was tested under outdoor conditions in the main cultivation areas of summer wheat in Canada against economically important weeds. The small-plot experiments were carried out on cultivated land under agricultural use. Areas with particularly extensive weed growth were chosen preferably. The active compounds were applied across the area by the spray method, with an average droplet size. To produce a useful preparation of active compound, the active compounds were formulated as 70 WP (70% w/w water-dispersible powder) and applied with customary amounts of water. Wetting of the plants was improved by addition of a surface-active substance (SAS) in the concentrations recommended by the respective manufacturer. To assess the crop compatibility, from 1 to 8 weeks after the treatment, plant growth inhibitions or […] of the leaf area were assessed in % damage in comparison to the development of the untreated control. At different intervals after the treatment, the herbicidal activity was assessed as % reduction in comparison to the untreated control, based on the weed development. The figures denote: • 0%=no damage of the crops or no herbicidal effect, • 100%=total destruction of the crops or the weeds.

Setaria viridis [6] = experiment: Post-emergence tests/outdoors (Example C, Canada); format: in vivo; conditions: outdoors, 30 g of a.i./ha + SAS (Canplus 411), 70 WP, 5 tests
Description: as §2

Sinapis arvensis [7] = experiment: Post-emergence tests/outdoors (Example C, Canada); format: in vivo; conditions: outdoors, 30 g of a.i./ha + SAS (Canplus 411), 70 WP, 5 tests
Description: as §2

Thlaspi arvense [8] = experiment: Post-emergence tests/outdoors (Example C, Canada); format: in vivo; conditions: outdoors, 30 g of a.i./ha + SAS (Canplus 411), 70 WP, 3 tests
Description: as §2

Avena fatua [9] = experiment: Post-emergence tests/outdoors (Example C, Canada); format: in vivo; conditions: outdoors
Description: as §2

Fallopia convolvulus = experiment: Post-emergence tests/outdoors (Example C, Canada); format: in vivo; conditions: outdoors, 30 g of a.i./ha + SAS (Canplus 411), 70 WP, 5 tests
Description: as §2

Avena = experiment: Pre-emergence test/greenhouse; format: in vivo; conditions: 504 h, after three weeks, read-out: degree of damage, Avena
Description: (§3) Pre-Emergence Test/Greenhouse Solvent: 5 parts by weight of acetone Emulsifier: 1 part by weight of alkylaryl polyglycol ether To produce a suitable preparation of active compound, 1 part by weight of active compound is mixed with the stated amount of solvent, the stated amount of emulsifier is added and the concentrate is diluted with water to the desired concentration. Seeds of the test plants are sown in normal soil. After about 24 hours, the soil is sprayed with the preparation of active compound such that the particular amount of active compound desired is applied per unit area. The concentration of the spray liquor is chosen so that the particular amount of active compound desired is applied in 500 ml of water per hectare. After three weeks, the degree of damage to the plants is assessed in % damage in comparison to the development of the untreated control. The figures denote: • 0%=no effect (like untreated control) • 100%=total destruction

Digitaria = experiment: Pre-emergence test/greenhouse; format: in vivo; conditions: 30 g of ai./ha, after three weeks
Description: as §3

Setaria = experiment: Pre-emergence test/greenhouse; format: in vivo; conditions: after three weeks
Description: as §3

Echinochloa = experiment: Pre-emergence test/greenhouse; format: in vivo; conditions: 30 g of ai./ha, after three weeks
Description: as §3

Wheat [10] = experiment: Pre-emergence test/greenhouse; format: in vivo; conditions: in vivo
Description: as §3

Matricaria = experiment: Pre-emergence test/greenhouse; format: in vivo; conditions: 30 g of ai./ha, after three weeks
Description: as §3

Bromus = experiment: Pre-emergence test/greenhouse; format: in vivo; conditions: 30 g of ai./ha, after three weeks
Description: as §3

Polygonum = experiment: Pre-emergence test/greenhouse; format: in vivo; conditions: 30 g of ai./ha, after three weeks
Description: as §3

Alopecurus = experiment: Pre-emergence test/greenhouse; format: in vivo; conditions: 504 h, after three weeks, read-out: degree of damage, Alopecurus
Description: as §3

With `COc1nn(C(=O)NS(=O)(=O)c2ccccc2OC(F)(F)F)c(=O)n1C` [(I)-Na-salt, 2-(2-trifluoromethoxy-phenylsulphonylaminocarbonyl)-4-methyl-5-methoxy-2,4-dihydro-3H-1,2,4-triazol-3-one] the “herbicidal effect (%), Setaria viridis” value (Setaria viridis [1]) was 94%, the “herbicidal effect (%), Brassica spp.” value (Brassica spp.) was 93% and the “herbicidal effect (%), Sinapis arvensis” value (Sinapis arvensis [2]) was 98%. For the same compound, the “herbicidal effect (%), Thlaspi arvense” value (Thlaspi arvense [3]) was 97%, the “herbicidal effect (%), Avena fatua” value (Avena fatua [4]) was 90% and the “herbicidal effect (%), Capsella bursa-pastoris” value (Capsella bursa-pastoris) was 90%. For the same compound, the “herbicidal effect (%), Amaranthus retroflexus” value (Amaranthus retroflexus) was 90%, the “crop compatibility compared with comparative compounds (B) and (D), in words” value (wheat [5]) was “approximately the same compatibility” and the “herbicidal effect (%), Setaria viridis” value (Setaria viridis [6]) was 94%. The “herbicidal effect (%), Sinapis arvensis” value (Sinapis arvensis [7]) was 94%, the “herbicidal effect (%), Thlaspi arvense” value (Thlaspi arvense [8]) was 93% and the “herbicidal effect (%), Avena fatua” value (Avena fatua [9]; 30 g of a.i./ha + SAS (Canplus 411), 70 WP, 6 tests) was 88%. For the same compound, the “activity against Avena fatua compared with comparative compounds (B) and (D), in words” value (Avena fatua [9]; post-emergence) was “considerably stronger activity”, the “herbicidal effect (%), Fallopia convolvulus” value (Fallopia convolvulus) was 73% and the pest or weed control at 30 g/ha (Avena; 30 g of ai./ha) was 95%. For the same compound, the pest or weed control at 250 g/ha (Avena; 250 g ai./ha) was 99%, the “degree of damage, Digitaria” value (Digitaria) was 100% and the “degree of damage, Setaria” value (Setaria; 30 g of ai./ha) was 100%. The “degree of damage, Setaria” value (Setaria; 250 g ai./ha) was 99%, the “degree of damage, Echinochloa” value (Echinochloa) was 80% and the “compatibility with crop plants (wheat), in words” value (Wheat [10]) was “very good compatibility”. For the same compound, the “degree of damage, Wheat” value (Wheat [10]; wheat, 3 weeks) was 0%, the “degree of damage, Matricaria” value (Matricaria) was 100% and the “degree of damage, Bromus” value (Bromus) was 100%. For the same compound, the “degree of damage, Polygonum” value (Polygonum) was 90%, the pest or weed control at 30 g/ha (Alopecurus; 30 g of ai./ha) was 100% and the pest or weed control at 250 g/ha (Alopecurus; 250 g ai./ha) was 100%.
